Test system: passive cutaneous anaphylaxis reaction (PCA reaction)
Assay: PCA reaction-inhibitory effects in rats (passive cutaneous anaphylaxis, oral administration)
Assay type: in vivo, Female Sprague-Dawley strain rats
Details: 1 hour before challenge
Description: DNP-ascaris (1 mg) prepared by combining a swine ascaris extract with 2,4-dinitrophenyl sulfate was mixe with 20 mg of aluminum hydroxide gel. The mixture was administered to rats subcutaneously on the back, and at the same time the animals were intraperitoneally given 2×10^10 dead Bordetella pertussis respectively. The same procedures were repeated after 14 days, and blood sample was obtained after 21 days to produce antisera.
Female Sprague-Dawley strain rats (8 weeks old) were sensitized by subcutaneously administering 0.1 ml of 1:256 diluted antisera (titer=1024)respectively on the grained back. After 48 hours, groups of four rats were orally given the amide derivatives produced in the examples above at various concentrations. After one hour, the rats were challenged by intravenously administering a 0.5% physiological saline solution of Evans Blue containing 1 mg of the NDP-ascaris from the tail. After 30 minutes, the animal was sacrificed by bleeding and the portion of the skin with the dye exuded was cut off. The cut skin was treated with 1N-KOH solution, and the dye was extracted by adding 9 ml of 0.6N-phosphoric acid-acetone (5:13) mixture. The supernatant from centrifugal separation was measured for absorbancy at 620 nm to determine amount of the dye. Percent inhibition at each of the concentrations of the amide derivatives was calculated in comparison with amount of the dye for control group. Results are shown in Table-I. Percent inhibition of tranilast, an antiallergic agent commercially available from Kissei Pharmaceutical Co., Ltd. under the trade name of Rizaben against PCA reaction was also shown in Table-I. As shown in Table-I, the amide derivatives of the invention produced high PCA reaction-inhibitory effects.

CCOCOc1ccc(/C=C/C=C/C(=O)NCCN2CCC(OC(c3ccccc3)c3ccccc3)CC2)cc1OC [Example 3, 1-[2-(5-(3-methoxy-4-ethoxymethoxyphenyl)-2,4-pentadienoyl)aminoethyl]-4-diphenylmethoxypiperidine]
Inhibition (%) mean ± SE, PCA reaction (30 mg/kg): 55 ± 9% | Inhibition (%) mean ± SE, PCA reaction (100 mg/kg): 78 ± 8%

COc1cc(/C=C/C=C/C(=O)NCCN2CCC(OC(c3ccccc3)c3ccccc3)CC2)ccc1OCc1ccccc1 [Example 1, 1-[2-(5-(3-methoxy-4-benzyloxyphenyl)-2,4-pentadienoyl)aminoethyl]-4-diphenylmethoxypiperidine]
Inhibition (%) mean ± SE, PCA reaction (30 mg/kg): 0 ± 20% | Inhibition (%) mean ± SE, PCA reaction (100 mg/kg): 50 ± 14%

COc1cc(/C=C/C=C/C(=O)NCCN2CCC(OC(c3ccccc3)c3ccccc3)CC2)ccc1OC1CCCO1 (stereo not drawn) [Example 2, 1-[2-(5-(3-methoxy-4-(2-tetrahydrofuranyl)oxyphenyl)-2,4-pentadienoyl)aminoethyl]-4-diphenylmethoxypiperidine]
Inhibition (%) mean ± SE, PCA reaction (10 mg/kg): 51 ± 18% | Inhibition (%) mean ± SE, PCA reaction (30 mg/kg): 71 ± 6%

COc1ccc(/C=C/C(=O)Nc2ccccc2C(=O)O)cc1OC [Tranilast, reference compound]
Inhibition (%) mean ± SE, PCA reaction (100 mg/kg): 37 ± 8% | Inhibition (%) mean ± SE, PCA reaction (200 mg/kg): 40 ± 10% | Inhibition (%) mean ± SE, PCA reaction (300 mg/kg): 42 ± 5%
